Data reported in PubChem BioAssay (NCI).
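Compound exposure: 48 hours, 5 concentrations, 96-well plates. TGI: concentration producing complete growth inhibition.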

What was measured:
Experiment in all cases: NCI anticancer screen, dose series, 48 h
[1] = test system: LXFL 529 NSCLC
[2] = test system: MOLT-4 leukemia
[3] = test system: A549 NSCLC
[4] = test system: HCT-116 colon
[5] = test system: OVCAR-3 ovarian
[6] = test system: HL-60(TB) leukemia
[7] = test system: HCT-15 colon
[8] = test system: HOP-92 NSCLC
[9] = test system: SNB-19 CNS
[10] = test system: SN12C renal
[11] = test system: M19-MEL melanoma
[12] = test system: U251 CNS
[13] = test system: NCI-H23 lung
[14] = test system: MALME-3M melanoma
[15] = test system: HOP-62 NSCLC
[16] = test system: DMS 273 small cell lung
[17] = test system: SF-539 CNS
[18] = test system: 786-0 renal
[19] = test system: EKVX NSCLC
[20] = test system: TK-10 renal
[21] = test system: KM20L2 colon
[22] = test system: HT29 colon
[23] = test system: A498 renal
[24] = test system: SNB-75 CNS
[25] = test system: K-562 leukemia
[26] = test system: LOX IMVI melanoma
[27] = test system: SK-MEL-5 melanoma
[28] = test system: CCRF-CEM leukemia
[29] = test system: CAKI-1 renal
[30] = test system: DMS 114 small cell lung
[31] = test system: SR leukemia
[32] = test system: NCI-H460 lung
[33] = test system: OVCAR-5 ovarian
[34] = test system: SF-268 CNS
[35] = test system: UO-31 renal
[36] = test system: IGROV1 ovarian
[37] = test system: UACC-62 melanoma
[38] = test system: HCC-2998 colon
[39] = test system: SNB-78 CNS
[40] = test system: ACHN renal
[41] = test system: COLO 205 colon
[42] = test system: SF-295 CNS
[43] = test system: SK-MEL-28 melanoma
[44] = test system: DLD-1 colon
[45] = test system: SK-MEL-2 melanoma
[46] = test system: NCI-H226 lung
[47] = test system: NCI-H522 lung
[48] = test system: SK-OV-3 ovarian
[49] = test system: OVCAR-4 ovarian
[50] = test system: OVCAR-8 ovarian
[51] = test system: M14 melanoma
[52] = test system: HOP-18 NSCLC
[53] = test system: RXF 393 renal
[54] = test system: KM12 colon
[55] = test system: SW-620 colon
[56] = test system: UACC-257 melanoma
[57] = test system: RPMI-8226 leukemia
[58] = test system: XF 498 CNS
[59] = test system: RXF-631 renal

CCOc1ccc(NC(=O)CCc2nnc(SC)o2)cc1
TGI [1]: > 100 µM
TGI [2]: > 100 µM
TGI [3]: > 100 µM
TGI [4]: > 100 µM
TGI [5]: > 100 µM
TGI [6]: > 100 µM
TGI [7]: > 100 µM
TGI [8]: > 100 µM
TGI [9]: > 100 µM
TGI [10]: > 100 µM
TGI [11]: > 100 µM
TGI [12]: > 100 µM
TGI [13]: > 100 µM
TGI [14]: > 100 µM
TGI [15]: > 100 µM
TGI [16]: > 100 µM
TGI [17]: > 100 µM
TGI [18]: > 100 µM
TGI [19]: > 100 µM
TGI [20]: > 100 µM
TGI [21]: > 100 µM
TGI [22]: > 100 µM
TGI [23]: > 100 µM
TGI [24]: > 100 µM
TGI [25]: > 100 µM
TGI [26]: > 100 µM
TGI [27]: > 100 µM
TGI [28]: > 100 µM
TGI [29]: > 100 µM
TGI [30]: > 100 µM
TGI [31]: > 100 µM
TGI [32]: > 100 µM
TGI [33]: > 100 µM
TGI [34]: > 100 µM
TGI [35]: > 100 µM
TGI [36]: > 100 µM
TGI [37]: > 100 µM
TGI [38]: > 100 µM
TGI [39]: > 100 µM
TGI [40]: > 100 µM
TGI [41]: > 100 µM
TGI [42]: > 100 µM
TGI [43]: > 100 µM
TGI [44]: > 100 µM
TGI [45]: > 100 µM
TGI [46]: > 100 µM
TGI [47]: > 100 µM
TGI [48]: > 100 µM
TGI [49]: > 100 µM
TGI [50]: > 100 µM
TGI [51]: > 100 µM
TGI [52]: > 100 µM
TGI [53]: > 100 µM
TGI [54]: > 100 µM
TGI [55]: > 100 µM
TGI [56]: > 100 µM

N[C@H](COCc1ccccc1)c1ccccc1
TGI [1]: 51.5 µM
TGI [2]: 45.7 µM
TGI [3]: > 100 µM
TGI [4]: 61.8 µM
TGI [5]: > 76.2 µM
TGI [6]: 30.8 µM
TGI [57]: 45.2 µM
TGI [7]: > 79.4 µM
TGI [8]: 62 µM
TGI [58]: 48.3 µM
TGI [9]: > 89.7 µM
TGI [10]: > 81.6 µM
TGI [11]: 64.3 µM
TGI [12]: > 100 µM
TGI [13]: 57.5 µM
TGI [14]: > 93.6 µM
TGI [15]: > 74.5 µM
TGI [16]: 50 µM
TGI [17]: 75.1 µM
TGI [18]: > 80.9 µM
TGI [19]: > 100 µM
TGI [20]: > 100 µM
TGI [21]: 75.8 µM
TGI [22]: > 93.9 µM
TGI [23]: 88.2 µM
TGI [24]: 56 µM
TGI [25]: 87.2 µM
TGI [26]: > 92.2 µM
TGI [27]: 44.8 µM
TGI [28]: 56.6 µM
TGI [29]: 61.2 µM
TGI [30]: 56.3 µM
TGI [31]: 56 µM
TGI [32]: 61.9 µM
TGI [33]: 87.2 µM
TGI [34]: > 100 µM
TGI [35]: 87.4 µM
TGI [36]: > 100 µM
TGI [37]: > 100 µM
TGI [38]: > 91.7 µM
TGI [39]: > 100 µM
TGI [40]: > 91.4 µM
TGI [41]: 29.2 µM
TGI [42]: 82.5 µM
TGI [43]: > 100 µM
TGI [44]: > 100 µM
TGI [45]: 49.8 µM
TGI [46]: 77.5 µM
TGI [47]: 39.1 µM
TGI [48]: > 100 µM
TGI [49]: > 100 µM
TGI [50]: > 100 µM
TGI [51]: 66 µM
TGI [52]: > 89.8 µM
TGI [53]: > 72.6 µM
TGI [54]: > 100 µM
TGI [55]: > 72.3 µM
TGI [56]: > 81.1 µM

Cc1cc(NS(=O)(=O)c2ccc(NC(=O)c3cccc4c(Nc5ccc(S(N)(=O)=O)cc5)c5ccccc5nc34)cc2)no1
TGI [1]: > 100 µM
TGI [2]: > 100 µM
TGI [4]: > 100 µM
TGI [5]: > 100 µM
TGI [6]: > 100 µM
TGI [57]: > 100 µM
TGI [7]: > 100 µM
TGI [58]: > 100 µM
TGI [9]: > 100 µM
TGI [10]: > 100 µM
TGI [11]: > 100 µM
TGI [12]: > 100 µM
TGI [13]: > 100 µM
TGI [14]: > 100 µM
TGI [15]: > 100 µM
TGI [17]: > 100 µM
TGI [19]: > 100 µM
TGI [20]: > 100 µM
TGI [22]: > 100 µM
TGI [23]: > 100 µM
TGI [24]: > 100 µM
TGI [59]: > 100 µM
TGI [25]: > 100 µM
TGI [26]: > 100 µM
TGI [28]: > 100 µM
TGI [30]: > 100 µM
TGI [31]: > 100 µM
TGI [32]: > 100 µM
TGI [33]: > 100 µM
TGI [34]: > 100 µM
TGI [35]: > 100 µM
TGI [37]: > 100 µM
TGI [38]: > 100 µM
TGI [39]: > 100 µM
TGI [40]: > 100 µM
TGI [43]: > 100 µM
TGI [44]: > 100 µM
TGI [45]: > 100 µM
TGI [47]: > 100 µM
TGI [48]: > 100 µM
TGI [49]: > 100 µM
TGI [51]: > 100 µM
TGI [53]: > 100 µM
TGI [54]: > 100 µM
TGI [56]: > 100 µM

N#CNc1nc(N)c(-c2ccc(Cl)cc2)c(C(=O)Nc2nccs2)n1
TGI [1]: > 100 µM
TGI [2]: > 100 µM
TGI [3]: > 100 µM
TGI [4]: > 100 µM
TGI [5]: > 100 µM
TGI [6]: > 100 µM
TGI [57]: > 100 µM
TGI [7]: > 100 µM
TGI [8]: > 100 µM
TGI [58]: > 100 µM
TGI [9]: > 100 µM
TGI [10]: > 100 µM
TGI [11]: > 100 µM
TGI [12]: > 100 µM
TGI [13]: > 100 µM
TGI [14]: > 100 µM
TGI [15]: > 100 µM
TGI [16]: > 100 µM
TGI [17]: > 100 µM
TGI [18]: > 100 µM
TGI [19]: > 100 µM
TGI [20]: > 100 µM
TGI [21]: > 100 µM
TGI [22]: > 100 µM
TGI [23]: > 100 µM
TGI [24]: > 100 µM
TGI [25]: > 100 µM
TGI [26]: > 100 µM
TGI [27]: > 100 µM
TGI [29]: > 100 µM
TGI [30]: > 100 µM
TGI [32]: > 100 µM
TGI [33]: > 100 µM
TGI [34]: > 100 µM
TGI [35]: > 100 µM
TGI [36]: > 100 µM
TGI [37]: > 100 µM
TGI [38]: > 100 µM
TGI [39]: > 100 µM
TGI [40]: > 100 µM
TGI [42]: > 100 µM
TGI [43]: > 100 µM
TGI [44]: > 100 µM
TGI [45]: > 100 µM
TGI [46]: > 100 µM
TGI [47]: > 100 µM
TGI [49]: > 100 µM
TGI [50]: > 100 µM
TGI [51]: > 100 µM
TGI [52]: > 100 µM
TGI [53]: > 100 µM
TGI [54]: > 100 µM
TGI [55]: > 100 µM
TGI [56]: > 100 µM
